Here are results for 3 molecules from ChEMBL document CHEMBL3872258, “Challenges in the development of an M4 PAM in vivo tool compound: The discovery of VU0467154 and unexpected DMPK profiles of close analogs” (Bioorg Med Chem Lett, 2017).

Structures are written as SMILES.

A short description of series [1]: Ratio of unbound concentration in brain to plasma in Sprague-Dawley rat at 0.20 to 0.25 mg/kg, iv administered through cassette dosing after 0.25 hrs. The series is classed as ADME, organism-based.
Series [2] has as its target Sodium-dependent serotonin transporter (Homo sapiens, UniProt P31645). The series can be described thus: Displacement of [3H]-Paroxetine from recombinant human SERT expressed in HEK293 cells. The series is classed as cell-based. (In general: Loss of bound radioactivity is the signal in a displacement assay; it reports binding, not function.)
Series [3] has as its target Voltage-dependent L-type calcium channel subunit alpha-1C (Homo sapiens, UniProt Q13936). As to the kind of experiment: Binding affinity to human Cav1.2 by radio-ligand binding assay.
For series [4], the target named is T1, Muscarinic acetylcholine receptor M4 (Rattus norvegicus, UniProt P08485).
T1 sequence (P08485 whole entry): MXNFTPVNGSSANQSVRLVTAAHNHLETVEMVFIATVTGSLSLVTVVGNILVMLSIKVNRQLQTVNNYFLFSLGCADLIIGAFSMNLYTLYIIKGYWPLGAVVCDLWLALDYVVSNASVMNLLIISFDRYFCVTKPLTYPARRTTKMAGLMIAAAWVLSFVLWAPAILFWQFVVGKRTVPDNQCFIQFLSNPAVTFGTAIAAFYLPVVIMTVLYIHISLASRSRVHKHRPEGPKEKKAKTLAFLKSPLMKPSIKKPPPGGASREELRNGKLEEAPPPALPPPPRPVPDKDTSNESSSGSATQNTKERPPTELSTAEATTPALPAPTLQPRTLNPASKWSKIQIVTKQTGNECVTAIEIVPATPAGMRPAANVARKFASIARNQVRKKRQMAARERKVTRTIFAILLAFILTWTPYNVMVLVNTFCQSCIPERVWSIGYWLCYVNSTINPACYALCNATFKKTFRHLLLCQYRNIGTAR
As to the kind of experiment: Positive allosteric modulation of rat M4 receptor expressed in CHO cells co-expressing Gqui5 by calcium mobilization assay. The series is classed as functional, cell-based. (A change in cytosolic calcium serves as a functional read-out for many receptors and channels.)

The target in series [5] is T2, Muscarinic acetylcholine receptor M4 (Homo sapiens, UniProt P08173).
T2 sequence (P08173 whole entry): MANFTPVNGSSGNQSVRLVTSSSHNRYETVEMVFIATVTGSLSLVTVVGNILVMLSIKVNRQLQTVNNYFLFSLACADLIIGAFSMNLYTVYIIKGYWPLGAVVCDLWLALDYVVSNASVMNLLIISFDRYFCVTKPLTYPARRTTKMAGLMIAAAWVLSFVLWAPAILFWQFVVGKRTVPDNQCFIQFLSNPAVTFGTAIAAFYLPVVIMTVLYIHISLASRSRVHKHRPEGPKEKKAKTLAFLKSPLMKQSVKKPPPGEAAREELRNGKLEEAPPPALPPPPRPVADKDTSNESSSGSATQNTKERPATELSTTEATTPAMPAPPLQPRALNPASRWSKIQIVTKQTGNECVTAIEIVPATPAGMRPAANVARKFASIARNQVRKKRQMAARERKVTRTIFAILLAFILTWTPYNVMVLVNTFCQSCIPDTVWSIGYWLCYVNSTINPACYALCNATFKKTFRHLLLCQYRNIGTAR
The series can be described thus: Positive allosteric modulation of human M4 receptor expressed in CHO cells co-expressing Gqui5 by calcium mobilization assay. The series is classed as functional, cell-based. The following applies: read-out: EC50.

The nature of series [6]: Inhibition of human adenosine transporter assessed as reduction in [3H]-adenosine uptake.
The target in series [7] is Growth hormone secretagogue receptor type 1 (Homo sapiens, UniProt Q92847). The series can be described thus: Inhibition of ghrelin receptor (unknown origin) by radioligand binding assay.
The nature of series [8]: Binding affinity to rat brain GABA receptor by radio-ligand binding assay.

Sequence of Sodium-dependent serotonin transporter (P31645 whole entry): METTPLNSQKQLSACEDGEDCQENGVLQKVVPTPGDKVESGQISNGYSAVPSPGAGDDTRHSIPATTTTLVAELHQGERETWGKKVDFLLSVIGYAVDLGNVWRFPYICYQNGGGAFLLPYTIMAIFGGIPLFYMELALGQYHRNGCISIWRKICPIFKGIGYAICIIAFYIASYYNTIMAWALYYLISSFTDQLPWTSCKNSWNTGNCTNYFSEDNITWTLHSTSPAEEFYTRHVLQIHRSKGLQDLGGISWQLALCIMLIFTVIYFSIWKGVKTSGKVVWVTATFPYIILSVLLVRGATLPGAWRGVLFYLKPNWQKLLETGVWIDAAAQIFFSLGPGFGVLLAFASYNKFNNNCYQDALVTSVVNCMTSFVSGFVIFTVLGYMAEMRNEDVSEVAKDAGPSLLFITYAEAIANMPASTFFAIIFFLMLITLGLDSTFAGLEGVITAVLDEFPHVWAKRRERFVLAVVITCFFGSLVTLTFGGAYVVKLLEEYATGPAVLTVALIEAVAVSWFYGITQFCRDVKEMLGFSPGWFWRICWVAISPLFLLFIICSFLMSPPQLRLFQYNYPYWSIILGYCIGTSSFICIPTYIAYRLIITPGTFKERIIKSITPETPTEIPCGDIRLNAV
Sequence of Voltage-dependent L-type calcium channel subunit alpha-1C (Q13936 whole entry): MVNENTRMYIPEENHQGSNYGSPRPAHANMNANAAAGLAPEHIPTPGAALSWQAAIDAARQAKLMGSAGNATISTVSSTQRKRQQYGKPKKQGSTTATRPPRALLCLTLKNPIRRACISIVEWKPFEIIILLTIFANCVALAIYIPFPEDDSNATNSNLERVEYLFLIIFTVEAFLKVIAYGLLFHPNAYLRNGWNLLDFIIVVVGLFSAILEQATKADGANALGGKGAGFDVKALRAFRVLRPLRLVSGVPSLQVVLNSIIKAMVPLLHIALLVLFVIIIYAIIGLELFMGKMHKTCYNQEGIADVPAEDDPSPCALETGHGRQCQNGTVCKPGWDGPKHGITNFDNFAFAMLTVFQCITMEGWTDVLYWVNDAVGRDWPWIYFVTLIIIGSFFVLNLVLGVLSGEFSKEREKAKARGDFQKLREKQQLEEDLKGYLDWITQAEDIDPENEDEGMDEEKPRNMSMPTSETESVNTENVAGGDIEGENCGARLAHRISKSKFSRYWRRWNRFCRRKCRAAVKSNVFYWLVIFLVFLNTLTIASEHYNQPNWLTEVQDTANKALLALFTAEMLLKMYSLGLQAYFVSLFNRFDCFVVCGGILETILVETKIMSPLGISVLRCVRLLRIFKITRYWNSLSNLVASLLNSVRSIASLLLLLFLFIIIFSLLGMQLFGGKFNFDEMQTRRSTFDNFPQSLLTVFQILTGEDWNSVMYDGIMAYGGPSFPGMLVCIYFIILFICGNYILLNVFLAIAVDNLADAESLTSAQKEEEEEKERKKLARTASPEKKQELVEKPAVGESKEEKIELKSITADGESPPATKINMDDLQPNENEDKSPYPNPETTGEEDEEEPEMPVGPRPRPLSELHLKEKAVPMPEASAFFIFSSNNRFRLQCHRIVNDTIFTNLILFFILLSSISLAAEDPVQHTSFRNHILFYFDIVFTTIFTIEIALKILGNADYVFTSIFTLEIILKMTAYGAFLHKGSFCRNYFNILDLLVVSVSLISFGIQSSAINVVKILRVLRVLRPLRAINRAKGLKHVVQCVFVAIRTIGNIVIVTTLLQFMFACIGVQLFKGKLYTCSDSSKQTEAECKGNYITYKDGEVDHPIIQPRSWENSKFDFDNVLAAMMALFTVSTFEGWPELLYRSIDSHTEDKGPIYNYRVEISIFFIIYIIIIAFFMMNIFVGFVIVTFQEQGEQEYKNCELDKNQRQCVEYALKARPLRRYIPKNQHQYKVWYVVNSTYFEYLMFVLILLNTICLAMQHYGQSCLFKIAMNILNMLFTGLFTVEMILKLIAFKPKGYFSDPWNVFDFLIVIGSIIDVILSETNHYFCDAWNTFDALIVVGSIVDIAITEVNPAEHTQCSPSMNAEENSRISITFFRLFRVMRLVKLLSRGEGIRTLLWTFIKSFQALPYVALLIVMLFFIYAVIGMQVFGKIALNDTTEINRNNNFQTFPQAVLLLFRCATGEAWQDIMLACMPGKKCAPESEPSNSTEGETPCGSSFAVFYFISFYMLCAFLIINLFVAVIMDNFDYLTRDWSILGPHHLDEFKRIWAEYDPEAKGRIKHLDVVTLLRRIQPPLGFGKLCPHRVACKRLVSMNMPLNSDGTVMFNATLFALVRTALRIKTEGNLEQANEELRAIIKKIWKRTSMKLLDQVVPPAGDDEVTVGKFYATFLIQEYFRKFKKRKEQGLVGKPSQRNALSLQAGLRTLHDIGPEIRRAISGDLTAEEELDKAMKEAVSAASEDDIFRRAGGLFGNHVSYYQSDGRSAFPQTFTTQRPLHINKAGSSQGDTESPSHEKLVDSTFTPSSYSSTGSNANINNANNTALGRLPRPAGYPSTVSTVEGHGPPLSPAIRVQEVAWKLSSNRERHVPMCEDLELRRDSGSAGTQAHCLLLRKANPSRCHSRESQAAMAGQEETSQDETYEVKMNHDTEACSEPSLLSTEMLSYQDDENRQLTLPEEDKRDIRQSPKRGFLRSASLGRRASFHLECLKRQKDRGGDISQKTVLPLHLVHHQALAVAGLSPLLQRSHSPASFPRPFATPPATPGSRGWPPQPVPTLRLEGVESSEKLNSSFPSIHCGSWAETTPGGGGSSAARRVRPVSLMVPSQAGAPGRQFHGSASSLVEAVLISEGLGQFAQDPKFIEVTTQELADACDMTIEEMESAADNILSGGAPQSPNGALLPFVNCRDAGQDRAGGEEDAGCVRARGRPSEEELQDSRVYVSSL
Sequence of Growth hormone secretagogue receptor type 1 (Q92847 whole entry): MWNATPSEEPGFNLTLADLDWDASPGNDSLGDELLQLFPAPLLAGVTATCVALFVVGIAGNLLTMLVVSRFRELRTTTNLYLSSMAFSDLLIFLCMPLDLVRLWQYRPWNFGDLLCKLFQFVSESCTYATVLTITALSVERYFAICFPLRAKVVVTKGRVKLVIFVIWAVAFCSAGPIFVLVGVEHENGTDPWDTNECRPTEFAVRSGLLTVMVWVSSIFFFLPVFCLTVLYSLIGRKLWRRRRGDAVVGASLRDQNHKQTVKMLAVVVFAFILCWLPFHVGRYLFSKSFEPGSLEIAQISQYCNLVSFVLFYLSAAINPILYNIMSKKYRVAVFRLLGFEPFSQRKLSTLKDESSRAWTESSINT

`Cc1nnc2sc(C(=O)NCc3ccc(S(=O)(=O)C(F)F)cc3)c(N)c2c1C`: in series [1], the “K(p,uu,brain)” value is reported as 0.1. The IC50 in series [2] was 0.6 µM; in series [3] it was 5.7 µM. The results for the EC50 in series [4] and in series [5] were 0.0178 µM and 0.251 µM, respectively.
For the molecule `Cc1nnc2sc(C(=O)NCc3ccc(S(=O)(=O)C(F)(F)F)cc3)c(N)c2c1C`, the IC50 in series [6] worked out at 0.24 µM.
Consider `Cc1nnc2sc(C(=O)NCc3ccc(S(F)(F)(F)(F)F)cc3)c(N)c2c1C`, for which the “K(p,uu,brain)” value in series [1] is 1. Also, the IC50 in series [2] was 0.52 µM; in series [7], 6.5 µM; in series [8] it was 2.1 µM. The EC50 came out at 0.0302 µM in series [4] and 0.55 µM in series [5].

One may read the IC50 as the midpoint of a concentration-inhibition curve. In general, EC50 refers to the concentration that produces a half-maximal response.
